Experiments:
[1] = molecular target: Phospholipase A2, major isoenzyme, pancreatic (Sus scrofa) (UniProt P00592); test: Inhibition of secretory PLA2 activity in porcine pancreas using [3H]-oleate labelled membranes at a concentration of 10 uM
[2] = Inhibition of secretory PLA2 activity in bee venom enzyme using [3H]oleate labelled membranes at a concentration of 10 uM
[3] = Inhibition of secretory PLA2 activity in Naja naja venom enzyme using [3H]oleate labelled membranes at a concentration of 10 uM

Sequence of Phospholipase A2, major isoenzyme, pancreatic (Sus scrofa) (P00592 whole entry, looked up): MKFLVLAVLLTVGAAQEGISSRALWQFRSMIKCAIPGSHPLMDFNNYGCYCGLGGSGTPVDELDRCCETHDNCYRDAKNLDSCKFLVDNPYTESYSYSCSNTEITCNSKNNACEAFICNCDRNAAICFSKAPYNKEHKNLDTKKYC

CCCCCCCCCCCCCCC(CO)NCC (stereo not given) [2-Ethylamino-hexadecan-1-ol]
IC50 [1]: 1.4 µM
IC50 [2]: 6.1 µM

CCCCCCCCCCCCCCC(N)CN(CC)CC (stereo not given) [N*1*,N*1*-Diethyl-hexadecane-1,2-diamine]
IC50 [1]: 3.6 µM
IC50 [3]: 9.5 µM
IC50 [2]: 11 µM

— BindingDB's records for doi:10.1016/s0960-894x(99)00680-0 (Univ. De Valencia, 2000)
